Measured values published in PMC5453931, “Cathelicidin-trypsin inhibitor loop conjugate represents a promising antibiotic candidate with protease stability” (Scientific Reports, 2017).
pKi: −log10 of the molar value. Values after ≈ are worked out from the molar mass of the structure shown. Where a SMILES comes first, the peptide text is derived from it. Bridges are numbered along the chain shown (N, C = ends).

Legend:
[1] = tested on: Candida albicans 08030102; experiment: microbe, parasite or virus in culture; type: cell-based; conditions: Fungi; two-fold broth microdilution, 37 °C, 18 h; mean of three independent experiments in duplicates
Description: (§1) A two-fold broth microdilution method described in our previous paper was used to determine the antimicrobial activities of parental and hybrid peptides. More than 30 strains including Gram-negative bacteria, Gram-positive bacteria and fungi were used in the current assay, in which the standard strains were stored in our lab and the clinical strains were collected from local hospitals. Briefly, bacteria were incubated in Mueller-Hinton broth (MH broth) at 37 °C to exponential phase and diluted to 10^6 CFU/mL. A serial dilution of peptide sample were prepared in 96-well microtiter plates (50 μL) and mixed with equal volume of microbial inoculums (50 μL). The plate was slowly shaken in the microbial incubator, and measured at A595 after incubation at 37 °C for 18 h. The minimal concentrations at which no microbial growth occurred were recorded as MIC (minimal inhibitory concentration) values. The traditional antibiotic ampicillin was used as positive control. The results are shown in an average of the MICs obtained from three independent experiments.

[2] = tested on: Escherichia coli ATCC25922; experiment: microbe, parasite or virus in culture; type: cell-based; conditions: Gram-negative; two-fold broth microdilution, MH broth, 37 °C, 18 h; mean of three independent experiments in duplicates
Description: as §1

S. Aureus 08032810 = experiment: microbe, parasite or virus in culture; type: cell-based; conditions: Gram-positive; two-fold broth microdilution, MH broth, 37 °C, 18 h; mean of three independent experiments in duplicates
Description: as §1

[3] = tested on: Shigella dysenteriae 0804203; experiment: microbe, parasite or virus in culture; type: cell-based; conditions: Gram-negative; two-fold broth microdilution, MH broth, 37 °C, 18 h; mean of three independent experiments in duplicates
Description: as §1

K. Pneumoniae 08031012 = experiment: microbe, parasite or virus in culture; type: cell-based; conditions: Gram-negative; two-fold broth microdilution, MH broth, 37 °C, 18 h; mean of three independent experiments in duplicates
Description: as §1

Aeromonas veronii = experiment: microbe, parasite or virus in culture; type: cell-based; conditions: Aquatic pathogenic bacteria; two-fold broth microdilution, 37 °C, 18 h; mean of three independent experiments in duplicates
Description: as §1

Vibrio brasiiensis = experiment: microbe, parasite or virus in culture; type: cell-based; conditions: Aquatic pathogenic bacteria; two-fold broth microdilution, 37 °C, 18 h; mean of three independent experiments in duplicates
Description: as §1

E. Coli 08032823 = experiment: microbe, parasite or virus in culture; type: cell-based; conditions: Gram-negative; two-fold broth microdilution, MH broth, 37 °C, 18 h; mean of three independent experiments in duplicates
Description: as §1

Aeromonas sobria = experiment: microbe, parasite or virus in culture; type: cell-based; conditions: Aquatic pathogenic bacteria; two-fold broth microdilution, 37 °C, 18 h; mean of three independent experiments in duplicates
Description: as §1

K. Pneumoniae 08040202 = experiment: microbe, parasite or virus in culture; type: cell-based; conditions: Gram-negative; two-fold broth microdilution, MH broth, 37 °C, 18 h; mean of three independent experiments in duplicates
Description: as §1

Vibrio cholerae = experiment: microbe, parasite or virus in culture; type: cell-based; conditions: Aquatic pathogenic bacteria; two-fold broth microdilution, 37 °C, 18 h; mean of three independent experiments in duplicates
Description: as §1

S. Aureus 08032706 = experiment: microbe, parasite or virus in culture; type: cell-based; conditions: Gram-positive; two-fold broth microdilution, MH broth, 37 °C, 18 h; mean of three independent experiments in duplicates
Description: as §1

Candida glabrata 08A802 = experiment: microbe, parasite or virus in culture; type: cell-based; conditions: Fungi; two-fold broth microdilution, 37 °C, 18 h; mean of three independent experiments in duplicates
Description: as §1

[4] = tested on: Enterococcus faecium 08052315; experiment: microbe, parasite or virus in culture; type: cell-based; conditions: Gram-positive; two-fold broth microdilution, MH broth, 37 °C, 18 h; mean of three independent experiments in duplicates
Description: as §1

P. Aeruginosa 08021015 = experiment: microbe, parasite or virus in culture; type: cell-based; conditions: Gram-negative; two-fold broth microdilution, MH broth, 37 °C, 18 h; mean of three independent experiments in duplicates
Description: as §1

[5] = tested on: Bacillus subtilis 08042313; experiment: microbe, parasite or virus in culture; type: cell-based; conditions: Gram-positive; two-fold broth microdilution, MH broth, 37 °C, 18 h; mean of three independent experiments in duplicates
Description: as §1

trypsin = experiment: Trypsin inhibition assay (NBLAN hydrolysis, Dixon method); type: biochemical; conditions: 50 mM Tris–HCl pH 7.8, trypsin 0.1 mg/mL, 5 min pre-incubation at 37 °C, substrate NBLAN 48, 96, 192 μg/mL, 405 nm
Description: The inhibition effect on the hydrolysis of synthetic chromogenic substrate by trypsin was assayed in 50 mM Tris–HCl, pH 7.8 buffer at room temperature. The trypsin of final concentration of 0.1 mg/mL and different amounts of the hybrid peptide (final concentrations ranging from 0 to 0.16 μg/mL) were pre-incubated for 5 min at 37 °C. N-α-Benzoyl-DL-arginine p-nitroanilide hydrochloride (NBLAN) was used as a substrate for trypsin. The reaction was initiated by the addition of NBLAN with a final concentration of 48, 96 and 192 μg/mL, respectively. The formation of yellow product, p-nitroaniline was monitored continuously at 405 nm[61]. The inhibition constant Ki of the hybrid peptides were determined according to the method of Dixon (1953)[62].

Vibrio Parahaemolyticus = experiment: MIC, two-fold broth microdilution; type: cell-based; conditions: Aquatic pathogenic bacteria; two-fold broth microdilution, 37 °C, 18 h; mean of three independent experiments in duplicates
Description: as §1

[6] = tested on: Staphylococcus epidermidis; experiment: MIC, two-fold broth microdilution; type: cell-based; conditions: Gram-positive; two-fold broth microdilution, MH broth, 37 °C, 18 h; mean of three independent experiments in duplicates
Description: as §1

E. Coli 08032813 = experiment: MIC, two-fold broth microdilution; type: cell-based; conditions: Gram-negative; two-fold broth microdilution, MH broth, 37 °C, 18 h; mean of three independent experiments in duplicates
Description: as §1

08030209 = experiment: microbe, parasite or virus in culture; type: cell-based, Arcyria cinerea; conditions: Fungi; two-fold broth microdilution, 37 °C, 18 h; mean of three independent experiments in duplicates
Description: as §1

E. coli 08040726 = experiment: MIC, two-fold broth microdilution (second listing of the strain number); type: cell-based; conditions: Gram-negative, MH broth, 37 °C, 18 h, mean of three independent experiments in duplicates
Description: as §1

CC[C@H](C)[C@@H]1NC(=O)[C@H](CO)NC(=O)[C@H](CCCCN)NC(=O)[C@H]([C@@H](C)O)NC(=O)[C@H](Cc2c[nH]c3ccccc23)NC(=O)[C@@H](N)CSSC[C@@H](C(=O)N[C@@H](CCCCN)C(=O)N[C@@H](Cc2ccccc2)C(=O)N[C@@H](Cc2ccccc2)C(=O)N[C@@H](CCCCN)C(=O)N[C@@H](CCCNC(=N)N)C(=O)N[C@@H](CC(C)C)C(=O)N[C@@H](CC(C)C)C(=O)N[C@@H](CCCCN)C(=O)N[C@@H](CO)C(=O)N[C@H](C(=O)N[C@@H](CCCNC(=N)N)C(=O)N[C@@H](CCCNC(=N)N)C(=O)N[C@@H](C)C(=O)N[C@H](C(=O)N[C@@H](CCCCN)C(=O)N[C@@H](CCCCN)C(=O)N[C@@H](Cc2ccccc2)C(N)=O)C(C)C)C(C)C)NC(=O)[C@@H]2CCCN2C(=O)[C@H](CCCCN)NC(=O)[C@@H]2CCCN2C(=O)[C@@H]2CCCN2C1=O [TIH3] (H-CWTKSIPPKPCKFFKRLLKSVRRAVKKF-NH2; disulfide 1-11)
MIC Candida albicans 08030102 [1]: — (no detectable activity in MIC assay in dose of 200 µg/mL or in trypsin inhibition assay at concentration of 160 μg/mL)
MIC Escherichia coli ATCC25922 [2]: — (no detectable activity in MIC assay in dose of 200 µg/mL or in trypsin inhibition assay at concentration of 160 μg/mL)
MIC S. Aureus 08032810 (S. Aureus 08032810): — (no detectable activity in MIC assay in dose of 200 µg/mL or in trypsin inhibition assay at concentration of 160 μg/mL)
MIC Shigella dysenteriae 0804203 [3]: — (no detectable activity in MIC assay in dose of 200 µg/mL or in trypsin inhibition assay at concentration of 160 μg/mL)
MIC K. Pneumoniae 08031012 (K. Pneumoniae 08031012): — (no detectable activity in MIC assay in dose of 200 µg/mL or in trypsin inhibition assay at concentration of 160 μg/mL)
MIC Aeromonas veronii (Aeromonas veronii): — (no detectable activity in MIC assay in dose of 200 µg/mL or in trypsin inhibition assay at concentration of 160 μg/mL)
MIC Vibrio brasiiensis (Vibrio brasiiensis): — (no detectable activity in MIC assay in dose of 200 µg/mL or in trypsin inhibition assay at concentration of 160 μg/mL)
MIC E. Coli 08032823 (E. Coli 08032823): — (no detectable activity in MIC assay in dose of 200 µg/mL or in trypsin inhibition assay at concentration of 160 μg/mL)
MIC Aeromonas sobria (Aeromonas sobria): — (no detectable activity in MIC assay in dose of 200 µg/mL or in trypsin inhibition assay at concentration of 160 μg/mL)
MIC K. Pneumoniae 08040202 (K. Pneumoniae 08040202): — (no detectable activity in MIC assay in dose of 200 µg/mL or in trypsin inhibition assay at concentration of 160 μg/mL)
MIC Vibrio cholerae (Vibrio cholerae): — (no detectable activity in MIC assay in dose of 200 µg/mL or in trypsin inhibition assay at concentration of 160 μg/mL)
MIC S. Aureus 08032706 (S. Aureus 08032706): — (no detectable activity in MIC assay in dose of 200 µg/mL or in trypsin inhibition assay at concentration of 160 μg/mL)
MIC Candida glabrata 08A802 (Candida glabrata 08A802): — (no detectable activity in MIC assay in dose of 200 µg/mL or in trypsin inhibition assay at concentration of 160 μg/mL)
MIC Enterococcus faecium 08052315 [4]: — (no detectable activity in MIC assay in dose of 200 µg/mL or in trypsin inhibition assay at concentration of 160 μg/mL)
MIC P. Aeruginosa 08021015 (P. Aeruginosa 08021015): — (no detectable activity in MIC assay in dose of 200 µg/mL or in trypsin inhibition assay at concentration of 160 μg/mL)
MIC Bacillus subtilis 08042313 [5]: — (no detectable activity in MIC assay in dose of 200 µg/mL or in trypsin inhibition assay at concentration of 160 μg/mL)
pKi (trypsin): 5.12
MIC Vibrio Parahaemolyticus (Vibrio Parahaemolyticus): 37.5 µg/mL (≈ 11.1 µM)
MIC Staphylococcus epidermidis [6]: — (no detectable activity in MIC assay in dose of 200 µg/mL or in trypsin inhibition assay at concentration of 160 μg/mL)
MIC E. Coli 08032813 (E. Coli 08032813): — (no detectable activity in MIC assay in dose of 200 µg/mL or in trypsin inhibition assay at concentration of 160 μg/mL)
MIC Arcyria cinerea 08030209 08030209: — (no detectable activity in MIC assay in dose of 200 µg/mL or in trypsin inhibition assay at concentration of 160 μg/mL)
MIC E. Coli 08040726 (second line with this strain number) (E. coli 08040726): — (no detectable activity in MIC assay in dose of 200 µg/mL or in trypsin inhibition assay at concentration of 160 μg/mL)
